Columns and labels:
Assay in all cases: NCI-60 single-dose screen
Format in all cases: cell-based
COLO 205 = details: Homo sapiens, single dose 10 µM, '-' = no inhibition, read-out: % Growth Inhibition
In short: (§1)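 Single concentration (10 μM) per compound, assayed by the NCI DTP against its 60-line panel covering leukemia, lung, colon, CNS, melanoma, ovarian, renal, prostate and breast cancers.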

DU-145 = details: Homo sapiens, single dose 10 µM, '-' = no inhibition, read-out: % Growth Inhibition
In short: as §1

SK-MEL-5 = details: Homo sapiens, single dose 10 µM, '-' = no inhibition, read-out: % Growth Inhibition
In short: as §1

MDA-MB-435 = details: Homo sapiens, single dose 10 µM, '-' = no inhibition, read-out: % Growth Inhibition
In short: as §1

UACC-62 = details: Homo sapiens, single dose 10 µM, '-' = no inhibition, read-out: % Growth Inhibition
In short: as §1

NCI-H322M = details: Homo sapiens, single dose 10 µM, '-' = no inhibition, read-out: % Growth Inhibition
In short: as §1

BT-549 = details: Homo sapiens, single dose 10 µM, '-' = no inhibition, read-out: % Growth Inhibition
In short: as §1

SN12C = details: Homo sapiens, single dose 10 µM, '-' = no inhibition, read-out: % Growth Inhibition
In short: as §1

SR = details: Homo sapiens, single dose 10 µM, '-' = no inhibition, read-out: % Growth Inhibition
In short: as §1

KM12 = details: Homo sapiens, single dose 10 µM, '-' = no inhibition, read-out: % Growth Inhibition
In short: as §1

NCI-H23 = details: Homo sapiens, single dose 10 µM, '-' = no inhibition, read-out: % Growth Inhibition
In short: as §1

NCI/ADR-RES = details: Homo sapiens, single dose 10 µM, '-' = no inhibition, read-out: % Growth Inhibition
In short: as §1

UACC-257 = details: Homo sapiens, single dose 10 µM, '-' = no inhibition, read-out: % Growth Inhibition
In short: as §1

HCC-2998 = details: Homo sapiens, single dose 10 µM, '-' = no inhibition, read-out: % Growth Inhibition
In short: as §1

MALME-3M = details: Homo sapiens, single dose 10 µM, '-' = no inhibition, read-out: % Growth Inhibition
In short: as §1

RPMI-8226 = details: Homo sapiens, single dose 10 µM, '-' = no inhibition, read-out: % Growth Inhibition
In short: as §1

SF-268 = details: Homo sapiens, single dose 10 µM, '-' = no inhibition, read-out: % Growth Inhibition
In short: as §1

ACHN 1 = details: Homo sapiens, single dose 10 µM, '-' = no inhibition, read-out: % Growth Inhibition
In short: as §1

TK-10 = details: Homo sapiens, single dose 10 µM, '-' = no inhibition, read-out: % Growth Inhibition
In short: as §1

A549/ATCC = details: Homo sapiens, single dose 10 µM, '-' = no inhibition, read-out: % Growth Inhibition
In short: as §1

MCF7 = details: Homo sapiens, single dose 10 µM, '-' = no inhibition, read-out: % Growth Inhibition
In short: as §1

MDA-MB-468 = details: Homo sapiens, single dose 10 µM, '-' = no inhibition, read-out: % Growth Inhibition
In short: as §1

U251 = details: Homo sapiens, U-251, single dose 10 µM, '-' = no inhibition, read-out: % Growth Inhibition
In short: as §1

OVCAR-8 = details: Homo sapiens, single dose 10 µM, '-' = no inhibition, read-out: % Growth Inhibition
In short: as §1

SNB-75 = details: Homo sapiens, single dose 10 µM, '-' = no inhibition, read-out: % Growth Inhibition
In short: as §1

SK-MEL-2 = details: Homo sapiens, single dose 10 µM, '-' = no inhibition, read-out: % Growth Inhibition
In short: as §1

HCT-116 = details: Homo sapiens, single dose 10 µM, '-' = no inhibition, read-out: % Growth Inhibition
In short: as §1

SNB-19 = details: Homo sapiens, single dose 10 µM, '-' = no inhibition, read-out: % Growth Inhibition
In short: as §1

A498 = details: Homo sapiens, single dose 10 µM, '-' = no inhibition, read-out: % Growth Inhibition
In short: as §1

EKVX = details: Homo sapiens, single dose 10 µM, '-' = no inhibition, read-out: % Growth Inhibition
In short: as §1

PC-3 = details: Homo sapiens, single dose 10 µM, '-' = no inhibition, read-out: % Growth Inhibition
In short: as §1

K-562 = details: Homo sapiens, K562, single dose 10 µM, '-' = no inhibition, read-out: % Growth Inhibition
In short: as §1

SK-MEL-28 = details: Homo sapiens, single dose 10 µM, '-' = no inhibition, read-out: % Growth Inhibition
In short: as §1

IGROV1 = details: Homo sapiens, IGROV-1, single dose 10 µM, '-' = no inhibition, read-out: % Growth Inhibition
In short: as §1

HL-60(TB) = details: Homo sapiens, single dose 10 µM, '-' = no inhibition, read-out: % Growth Inhibition
OVCAR-3 = details: Homo sapiens, single dose 10 µM, '-' = no inhibition, read-out: % Growth Inhibition
In short: as §1

RXF 393 = details: Homo sapiens, single dose 10 µM, '-' = no inhibition, read-out: % Growth Inhibition
In short: as §1

CAKI-1 = details: Homo sapiens, single dose 10 µM, '-' = no inhibition, read-out: % Growth Inhibition
In short: as §1

HOP-62 = details: Homo sapiens, single dose 10 µM, '-' = no inhibition, read-out: % Growth Inhibition
In short: as §1

OVCAR-5 = details: Homo sapiens, single dose 10 µM, '-' = no inhibition, read-out: % Growth Inhibition
In short: as §1

OVCAR-4 = details: Homo sapiens, single dose 10 µM, '-' = no inhibition, read-out: % Growth Inhibition
In short: as §1

MDA-MB231/ATCC = details: Homo sapiens, MDA-MB-231, single dose 10 µM, '-' = no inhibition, read-out: % Growth Inhibition
In short: as §1

LOX IMVI = details: Homo sapiens, single dose 10 µM, '-' = no inhibition, read-out: % Growth Inhibition
In short: as §1

UO-31 = details: Homo sapiens, single dose 10 µM, '-' = no inhibition, read-out: % Growth Inhibition
In short: as §1

NCI-H522 = details: Homo sapiens, single dose 10 µM, '-' = no inhibition, read-out: % Growth Inhibition
In short: as §1

HOP-92 = details: Homo sapiens, single dose 10 µM, '-' = no inhibition, read-out: % Growth Inhibition
In short: as §1

NCI-H460 = details: Homo sapiens, single dose 10 µM, '-' = no inhibition, read-out: % Growth Inhibition
In short: as §1

786-0 = details: Homo sapiens, single dose 10 µM, '-' = no inhibition, read-out: % Growth Inhibition
In short: as §1

`COc1ccc(-c2cc(-c3ccc(Cl)cc3)nc(SCc3ccccc3)n2)cc1OC` [Compound 28, 2-(Benzylthio)-4-(4-chlorophenyl)-6-(3,4-dimethoxyphenyl)pyrimidine] gave an inhibition at 10 µM (COLO 205) of 3.49%, an inhibition at 10 µM (DU-145) of 8.2% and an inhibition at 10 µM (SK-MEL-5) of 30.1%. The inhibition at 10 µM (MDA-MB-435) was 15.2%, the inhibition at 10 µM (UACC-62) was less than 0% and the inhibition at 10 µM (NCI-H322M) was less than 0%. For the same compound, the inhibition at 10 µM (BT-549) was 3.64%, the inhibition at 10 µM (SN12C) was 23.1% and the inhibition at 10 µM (SR) was 39.4%. For the same compound, the inhibition at 10 µM (KM12) was 23.2%, the inhibition at 10 µM (NCI-H23) was 2.2% and the inhibition at 10 µM (NCI/ADR-RES) was 14.3%. The inhibition at 10 µM (UACC-257) was 15.3%, the inhibition at 10 µM (HCC-2998) was less than 0% and the inhibition at 10 µM (MALME-3M) was less than 0%. For the same compound, the inhibition at 10 µM (RPMI-8226) was 24.3%, the inhibition at 10 µM (SF-268) was 10.8% and the inhibition at 10 µM (ACHN 1) was 13.1%. For the same compound, the inhibition at 10 µM (TK-10) was less than 0%, the inhibition at 10 µM (A549/ATCC) was 18.9% and the inhibition at 10 µM (MCF7) was 12.9%. It also gave an inhibition at 10 µM (MDA-MB-468) of 6.53%, an inhibition at 10 µM (U251) of 13.1% and an inhibition at 10 µM (OVCAR-8) of 8.97%. It also gave an inhibition at 10 µM (SNB-75) of less than 0%, an inhibition at 10 µM (SK-MEL-2) of 12% and an inhibition at 10 µM (HCT-116) of 25.9%. The inhibition at 10 µM (SNB-19) was 4.06%, the inhibition at 10 µM (A498) was 0.85% and the inhibition at 10 µM (EKVX) was 22.2%. It also gave an inhibition at 10 µM (PC-3) of 19%, an inhibition at 10 µM (K-562) of 30.9% and an inhibition at 10 µM (SK-MEL-28) of 4.01%. It also gave an inhibition at 10 µM (IGROV1) of less than 0%, an inhibition at 10 µM (HL-60(TB)) of 21.4% and an inhibition at 10 µM (OVCAR-3) of less than 0%. The inhibition at 10 µM (RXF 393) was less than 0%, the inhibition at 10 µM (CAKI-1) was 25.7% and the inhibition at 10 µM (HOP-62) was less than 0%. The inhibition at 10 µM (OVCAR-5) was 6.33%, the inhibition at 10 µM (OVCAR-4) was 21.5% and the inhibition at 10 µM (MDA-MB231/ATCC) was 23%. For the same compound, the inhibition at 10 µM (LOX IMVI) was 8.32%, the inhibition at 10 µM (UO-31) was 24.8% and the inhibition at 10 µM (NCI-H522) was 31.8%. It also gave an inhibition at 10 µM (HOP-92) of 0.63%, an inhibition at 10 µM (NCI-H460) of 14.8% and an inhibition at 10 µM (786-0) of 7.96%.

`COc1ccc(CSc2nc(-c3ccc(Cl)cc3)cc(-c3ccc(OC)c(OC)c3)n2)cc1` [Compound 29, 2-(4-Methoxybenzylthio)-4-(4-chlorophenyl)-6-(3,4-dimethoxyphenyl)pyrimidine] was tested, and the inhibition at 10 µM (COLO 205) was 11.3%, the inhibition at 10 µM (DU-145) was 28.6% and the inhibition at 10 µM (SK-MEL-5) was 22.6%. For the same compound, the inhibition at 10 µM (MDA-MB-435) was 22.8%, the inhibition at 10 µM (UACC-62) was 38.7% and the inhibition at 10 µM (NCI-H322M) was 17.4%. The inhibition at 10 µM (BT-549) was 21.4%, the inhibition at 10 µM (SN12C) was 35.6% and the inhibition at 10 µM (SR) was 45.8%. It also gave an inhibition at 10 µM (KM12) of 24.8%, an inhibition at 10 µM (NCI-H23) of 14.6% and an inhibition at 10 µM (NCI/ADR-RES) of 32.1%. It also gave an inhibition at 10 µM (UACC-257) of 0.85%, an inhibition at 10 µM (HCC-2998) of less than 0% and an inhibition at 10 µM (MALME-3M) of 4.95%. For the same compound, the inhibition at 10 µM (RPMI-8226) was 36.9%, the inhibition at 10 µM (SF-268) was 33% and the inhibition at 10 µM (ACHN 1) was 13.2%. It also gave an inhibition at 10 µM (TK-10) of less than 0%, an inhibition at 10 µM (A549/ATCC) of 30.1% and an inhibition at 10 µM (MCF7) of 27.4%. The inhibition at 10 µM (MDA-MB-468) was 40.2%, the inhibition at 10 µM (U251) was 23.3% and the inhibition at 10 µM (OVCAR-8) was 19.4%. It also gave an inhibition at 10 µM (SNB-75) of 1.93%, an inhibition at 10 µM (SK-MEL-2) of 13.7% and an inhibition at 10 µM (HCT-116) of 30.2%. It also gave an inhibition at 10 µM (SNB-19) of 14.2%, an inhibition at 10 µM (A498) of less than 0% and an inhibition at 10 µM (EKVX) of 29.7%. For the same compound, the inhibition at 10 µM (PC-3) was 36.4%, the inhibition at 10 µM (K-562) was 54.5% and the inhibition at 10 µM (SK-MEL-28) was 11.3%. It also gave an inhibition at 10 µM (IGROV1) of 6.14%, an inhibition at 10 µM (HL-60(TB)) of 38.8% and an inhibition at 10 µM (OVCAR-3) of less than 0%. The inhibition at 10 µM (RXF 393) was 24.2%, the inhibition at 10 µM (CAKI-1) was 23.1% and the inhibition at 10 µM (HOP-62) was 16.4%. For the same compound, the inhibition at 10 µM (OVCAR-5) was 7.38%, the inhibition at 10 µM (OVCAR-4) was 21.9% and the inhibition at 10 µM (MDA-MB231/ATCC) was 30.3%. It also gave an inhibition at 10 µM (LOX IMVI) of 20.9%, an inhibition at 10 µM (UO-31) of 33.1% and an inhibition at 10 µM (NCI-H522) of 23.1%. The inhibition at 10 µM (HOP-92) was 20.6%, the inhibition at 10 µM (NCI-H460) was 21.2% and the inhibition at 10 µM (786-0) was 11.6%.

Reference: publication PMC11576293, “New series of 4,6-diaryl pyrimidines: facile synthesis and antiproliferative activity as dual EGFR/VEGFR-2 inhibitors” (Frontiers in Chemistry, 2024)
